Assay in all cases: relative viability (nuclei count vs DMSO), 5 days (fraction); higher = more cells survive
Compound in one assay: Cc1cnc(CNC(=O)c2c(=O)c3ccc(N4CCCN(C)CC4)nc3n3c2sc2ccccc23)cn1 [CX-5461]
In a few lines: (§1)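 After an overnight hold at 37 °C, lung cancer cell lines in 1536-well plates were pinned with five library-drug doses (not always all listed), each √10 from the next, on vehicle-anchored plates. The cells stayed 5 days without fresh medium, then a one-step fix, permeabilisation and Hoechst stain preceded 4× imaging and MetaXpress nuclear counts. A plate passed only with control CV under 25% and at least one doubling. Viability is the median, over plates, of treated-well nuclei relative to vehicle-well nuclei.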

Compound in the next assay: O=C(Nc1cc(C(F)(F)F)cc(C(F)(F)F)c1)c1cc(Cl)ccc1O [IMD-0354]
In outline:
as §1

Compound in the assay “IMD-0354 + Navitoclax”: O=C(Nc1cc(C(F)(F)F)cc(C(F)(F)F)c1)c1cc(Cl)ccc1O [IMD-0354] + CC1(C)CCC(c2ccc(Cl)cc2)=C(CN2CCN(c3ccc(C(=O)NS(=O)(=O)c4ccc(N[C@H](CCN5CCOCC5)CSc5ccccc5)c(S(=O)(=O)C(F)(F)F)c4)cc3)CC2)C1 [Navitoclax] (partner 0.5 µM)
In outline:
(§2)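 Values are medians from duplicate plates. Each reflects relative viability, defined as the nuclei count of treated wells over that of vehicle wells. Lung cancer cell lines in 1536-well plates were pin-tool dosed one day after seeding with one drug alone or with a fixed anchor-drug dose plus five library-drug doses (not always all listed) in √10 steps, then fixed, stained and imaged at 4× after 5 days.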

Compound in the assay “CX-5461 + Trametinib”: Cc1cnc(CNC(=O)c2c(=O)c3ccc(N4CCCN(C)CC4)nc3n3c2sc2ccccc23)cn1 [CX-5461] + CC(=O)Nc1cccc(-n2c(=O)n(C3CC3)c(=O)c3c(Nc4ccc(I)cc4F)n(C)c(=O)c(C)c32)c1 [Trametinib] (partner 0.02 µM)
In outline: as §2

For the cell line LCLC-97TM1, the relative viability was found to be 0.881 with CX-5461 (0.01 µM); 1.14 with CX-5461 (0.03162 µM); 0.992 with CX-5461 (0.1 µM); 0.746 with CX-5461 (1 µM); 0.97 in the assay with IMD-0354 (0.04 µM); 0.938 in the assay with IMD-0354 (0.1265 µM). Besides, the relative viability in the assay with IMD-0354 (0.4 µM) stood at 0.639; in the assay with IMD-0354 (1.265 µM), 0.384; with IMD-0354 (4 µM), 0.128; with IMD-0354 + Navitoclax (first compound 0.1265 µM), 0.331; with IMD-0354 + Navitoclax (first compound 0.4 µM) it was 0.368; with IMD-0354 + Navitoclax (first compound 1.265 µM), 0.322. Further, the relative viability is 0.205 with IMD-0354 + Navitoclax (first compound 4 µM); 0.199 in the assay with CX-5461 + Trametinib (first compound 0.01 µM); 0.216 in the assay with CX-5461 + Trametinib (first compound 0.03162 µM); 0.176 in the assay with CX-5461 + Trametinib (first compound 0.1 µM); 0.193 with CX-5461 + Trametinib (first compound 0.3162 µM); 0.213 in the assay with CX-5461 + Trametinib (first compound 1 µM).
For EPLC-272H, the relative viability in the assay with CX-5461 (0.01 µM) amounted to 0.994; with CX-5461 (0.03162 µM), 0.886; with CX-5461 (0.1 µM), 0.901; with CX-5461 (1 µM), 0.922; in the assay with IMD-0354 (0.04 µM), 1.21; with IMD-0354 (0.1265 µM), 1.08. Besides, the relative viability with IMD-0354 (0.4 µM) worked out at 0.717; with IMD-0354 (1.265 µM), 0.442; in the assay with IMD-0354 (4 µM), 0.16; in the assay with IMD-0354 + Navitoclax (first compound 0.04 µM), 1.45; with IMD-0354 + Navitoclax (first compound 0.1265 µM), 1; with IMD-0354 + Navitoclax (first compound 0.4 µM), 0.54. In addition, the relative viability in the assay with IMD-0354 + Navitoclax (first compound 1.265 µM) turned out to be 1.06; with IMD-0354 + Navitoclax (first compound 4 µM), 0.25; with CX-5461 + Trametinib (first compound 0.01 µM) it was 0.27; with CX-5461 + Trametinib (first compound 0.03162 µM), 0.308; with CX-5461 + Trametinib (first compound 0.1 µM), 0.268; in the assay with CX-5461 + Trametinib (first compound 1 µM), 0.318.
Take NCI-H1915: the relative viability in the assay with CX-5461 (0.01 µM) worked out at 1.06; with CX-5461 (0.03162 µM), 1.13; with CX-5461 (0.1 µM), 0.996; with CX-5461 (0.3162 µM), 0.79; with CX-5461 (1 µM), 0.899; with IMD-0354 (0.04 µM), 0.824. Moreover, the relative viability with IMD-0354 (0.1265 µM) was 1.02; in the assay with IMD-0354 (0.4 µM), 0.675; with IMD-0354 (1.265 µM) it was 0.316; in the assay with IMD-0354 (4 µM), 0.165; in the assay with IMD-0354 + Navitoclax (first compound 0.04 µM), 0.708; in the assay with IMD-0354 + Navitoclax (first compound 0.1265 µM), 0.857. The relative viability with IMD-0354 + Navitoclax (first compound 0.4 µM) is 0.412; in the assay with IMD-0354 + Navitoclax (first compound 1.265 µM), 0.661; in the assay with IMD-0354 + Navitoclax (first compound 4 µM), 0.219; in the assay with CX-5461 + Trametinib (first compound 0.01 µM), 0.285; with CX-5461 + Trametinib (first compound 0.03162 µM) it was 0.326; in the assay with CX-5461 + Trametinib (first compound 0.1 µM) it was 0.327. The relative viability stood at 0.315 with CX-5461 + Trametinib (first compound 0.3162 µM) and 0.307 in the assay with CX-5461 + Trametinib (first compound 1 µM).
NCI-H2405: the relative viability in the assay with CX-5461 (0.01 µM) turned out to be 1.03; in the assay with CX-5461 (0.03162 µM) it was 0.995; in the assay with CX-5461 (0.1 µM), 1.01; with CX-5461 (0.3162 µM), 0.897; with CX-5461 (1 µM), 0.864; with IMD-0354 (0.04 µM), 1.08. The relative viability with IMD-0354 (0.1265 µM) was found to be 1.09; with IMD-0354 (0.4 µM), 0.7; with IMD-0354 (1.265 µM) it was 0.278; with IMD-0354 (4 µM), 0.332; with IMD-0354 + Navitoclax (first compound 0.04 µM), 1.08; in the assay with IMD-0354 + Navitoclax (first compound 0.1265 µM), 0.952. Besides, the relative viability with IMD-0354 + Navitoclax (first compound 0.4 µM) was found to be 0.612; with IMD-0354 + Navitoclax (first compound 1.265 µM), 0.174; with IMD-0354 + Navitoclax (first compound 4 µM) it was 0.113; with CX-5461 + Trametinib (first compound 0.01 µM), 0.652; with CX-5461 + Trametinib (first compound 0.03162 µM) it was 0.594; with CX-5461 + Trametinib (first compound 0.1 µM), 0.724. The relative viability with CX-5461 + Trametinib (first compound 0.3162 µM) came to 0.575; with CX-5461 + Trametinib (first compound 1 µM), 0.649.
For the cell line NCI-H322M, the relative viability in the assay with CX-5461 (0.01 µM) was determined as 0.923; with CX-5461 (0.03162 µM) it was 0.987; in the assay with CX-5461 (0.1 µM), 1.03; with CX-5461 (0.3162 µM) it was 0.491; in the assay with CX-5461 (1 µM) it was 0.731; with IMD-0354 (0.04 µM) it was 0.992. Moreover, the relative viability with IMD-0354 (0.1265 µM) is 1.09; with IMD-0354 (0.4 µM), 0.805; with IMD-0354 (1.265 µM), 0.406; with IMD-0354 (4 µM) it was 0.331; in the assay with IMD-0354 + Navitoclax (first compound 0.04 µM), 1.27; in the assay with IMD-0354 + Navitoclax (first compound 0.1265 µM) it was 1.23. Besides, the relative viability was determined as 1.12 with IMD-0354 + Navitoclax (first compound 0.4 µM); 1.5 with IMD-0354 + Navitoclax (first compound 1.265 µM); 0.267 in the assay with IMD-0354 + Navitoclax (first compound 4 µM); 0.441 with CX-5461 + Trametinib (first compound 0.01 µM); 0.542 with CX-5461 + Trametinib (first compound 0.03162 µM); 0.55 with CX-5461 + Trametinib (first compound 0.1 µM). Also, the relative viability came out at 0.407 with CX-5461 + Trametinib (first compound 0.3162 µM) and 0.508 with CX-5461 + Trametinib (first compound 1 µM).

The values above are taken from the supplement of paper PMC10307832.
